{
  "source": "paper PMC3388080",
  "about": "(PLoS ONE, 2012)",
  "key": {"[1]": {"test": "Plasma protein binding (free fraction), rat plasma", "experimental": "(§1) Pharmacokinetic analyses were performed at F. Hoffmann-La Roche as described in supporting Materials and Methods S1.\n(§2) Cmax, maximum concentration; Tmax, time at which maximum concentration was observed; AUC, area under the plasma concentration vs. time curve; CL, clearance; Vss, volume of distribution at steady state; T1/2, terminal half-life; F, bioavailability; Fu, Fraction unbound. Plasma values are mean, n=2."}, "[2]": {"test": "Pharmacokinetics after single i.v. or p.o. bolus in Wistar rat", "experimental": "as §1, §2"}, "[3]": {"system": "panel of 79 target receptors", "test": "CEREP selectivity screen, panel of 79 target receptors", "type": "binding", "conditions": "10 µM; all targets except A2A, A3, MT3, P2Y, 5HT2C", "experimental": "SB-334867 was evaluated in a selectivity screen performed at CEREP (Paris, France). The screen consisted of binding assays on a panel of 79 target receptors. The specific binding (SB) of a radioligand to each target receptor was defined as the difference between the total binding and the nonspecific binding determined in the presence of a cold competitor in excess. […] Details on the CEREP screen are available from www.cerep.fr.\nAmong the 79 receptors tested, 30 were peptide receptors. […] The selectivity profiles of almorexant and EMPA [37] have been reported previously."}, "[4]": {"test": "Stability in human plasma", "experimental": "as §1"}, "[5]": {"test": "Plasma and brain exposure at the end of the LMA experiment", "type": "in vivo, rat", "conditions": "35 min", "experimental": "(§3) Locomotor activity (LMA) was evaluated at F. Hoffmann-La Roche as described previously. Male Wistar rats were placed for 2 weeks in a 12 h light/12 h dark cycle with light onset at 22∶00 (ZT0). […] Spontaneous LMA was recorded for a period of 30 min. At the end of the experiment, the brain and plasma were collected for determination of the drug exposure and brain/plasma concentration ratio.\nThe plasma and brain exposure of SB-334867 were measured at the end of the LMA experiment."}, "[6]": {"test": "Plasma protein binding (free fraction), human plasma", "experimental": "as §1"}, "Stability in rat plasma": {"test": "Stability in rat plasma", "experimental": "as §1"}, "Male Wistar rats": {"system": "Male Wistar rats", "test": "Spontaneous locomotor activity during the active phase", "type": "in vivo, rat", "conditions": "for spontaneous LMA: vehicle 6097±536; for effect on spontaneous LMA (in words): 3, 10, 30 mg/kg ip at ZT15, almorexant significant only at 30 mg/kg, SB-334867 at 10 and 30 mg/kg", "experimental": "as §3\nHorizontal locomotor activity was recorded for a period of 30 min. Numbers on the X-axes represent intraperitoneal doses in mg/kg.***p<0.001, **p<0.01, *p<0.05 vs. Veh (one-way ANOVA followed by Dunnett’s analysis). All data are mean±SEM (n = 8 per group)."}, "in vivo": {"test": "in vivo", "conditions": "male, Sprague-Dawley, rat", "experimental": "This study was performed at F. Hoffmann-La Roche. Sixty-five male Sprague-Dawley rats, housed 5 per cage (light onset: 12∶00), were injected intraperitoneally (ip) with either vehicle (1.25% hydroxypropyl methylcellulose (HPMC), 0.1% docusate sodium) or almorexant (30 mg/kg in 1.25% HPMC, 0.1% docusate sodium) at the mid-dark phase (ZT18; i.e., 6 h after lights-off), and returned to their home cage. Groups (n = 5 per group) of vehicle- or almorexant-treated animals were then sacrificed by decapitation 0.5, 2, 4, 8 or 12 h after the injection. An extra group of non-injected rats (n = 5) was also sampled at ZT18. Plasma was collected and stored at −80°C until assayed. Brains were rapidly dissected, frozen on dry ice, and stored at −80°C. Series of coronal brain sections (14 µm) were cut in a cryostat through the posterior hypothalamus (tuberomammillary nucleus level: 3.8 to 4.2 mm posterior to bregma) and the brain stem (dorsal raphe nucleus level: 7.3 to 8 mm posterior to bregma; locus coeruleus level: −9.3 to −10 mm posterior to bregma), thaw-mounted (6 sections per slide) and stored at −20°C. After sectioning, the remaining pieces of brain were kept at −80°C for later determination of almorexant brain concentration. The brain and plasma concentrations of almorexant were determined by quantitative liquid chromatography/mass spectrometry/mass spectrometry (LC/MS/MS)."}, "HCRTR1": {"target": "T1, HCRTR1 (Rattus norvegicus, UniProt P56718)", "T1 construct": "from tissue; host or cells: coronal brain sections of male Sprague-Dawley rats (locus coeruleus)", "T1 sequence (P56718 1-416)": "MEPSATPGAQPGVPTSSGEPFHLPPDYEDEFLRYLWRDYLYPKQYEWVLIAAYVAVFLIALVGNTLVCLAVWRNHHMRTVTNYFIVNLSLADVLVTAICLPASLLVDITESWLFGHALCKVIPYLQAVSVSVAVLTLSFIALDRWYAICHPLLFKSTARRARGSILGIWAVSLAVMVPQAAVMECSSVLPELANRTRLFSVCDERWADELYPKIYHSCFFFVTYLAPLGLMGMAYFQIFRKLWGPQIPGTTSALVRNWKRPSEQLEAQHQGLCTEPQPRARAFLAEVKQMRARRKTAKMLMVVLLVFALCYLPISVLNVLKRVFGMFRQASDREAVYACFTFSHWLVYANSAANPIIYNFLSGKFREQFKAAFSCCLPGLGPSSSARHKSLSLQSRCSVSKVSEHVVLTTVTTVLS", "test": "in vivo", "type": "in vivo"}, "[7]": {"conditions": "i.v., dose 2.40 / 5.18 / 12.10 mg/kg"}, "[8]": {"conditions": "p.o., dose 6.35 / 8.75 / 18.16 mg/kg"}},
  "data": [
    {"smiles": "Cc1nc2ccc(NC(=O)Nc3ccnc4cccnc34)cc2o1.Cl", "note": "[SB-334867, 1-(2-methylbenzoxazol-6-yl)-3-[1], [5]naphthyridin-4-yl-urea hydrochloride]", "values": [
      {"measurement": "Fu (fraction unbound / free fraction)", "setting": "[1]", "value": 0.8, "unit": "%"},
      {"measurement": "CL", "setting": "[2]; i.v.", "value": 5.40, "unit": "mL/min/kg"},
      {"measurement": "Vss", "setting": "[2]; i.v.", "value": 0.57, "unit": "L/kg"},
      {"measurement": "AUC/Dose", "setting": "[2]; [7]", "value": 3118.90, "unit": "ng/h/mL"},
      {"measurement": "T1/2 (terminal half-life)", "setting": "[2]; [7]", "value": 1.21, "unit": "h"},
      {"measurement": "Tmax", "setting": "[2]; [7]", "value": 0, "unit": "min"},
      {"measurement": "Cmax/Dose", "setting": "[2]; i.v., dose almorexant 2.40, SB-334867 5.18, SB-408124 12.10 mg/kg", "value": 1937.40, "unit": "ng/mL"},
      {"measurement": "F (bioavailability)", "setting": "[2]; p.o.", "value": 45.70, "unit": "%"},
      {"measurement": "AUC/Dose", "setting": "[2]; [8]", "value": 1423.50, "unit": "ng/h/mL"},
      {"measurement": "T1/2 (terminal half-life)", "setting": "[2]; [8]", "value": 3.10, "unit": "h"},
      {"measurement": "Tmax", "setting": "[2]; [8]", "value": 90, "unit": "min"},
      {"measurement": "Cmax/Dose", "setting": "[2]; p.o., dose almorexant 6.35, SB-334867 8.75, SB-408124 18.16 mg/kg", "value": 331.10, "unit": "ng/mL"},
      {"measurement": "Vss (in words)", "setting": "[2]; rat", "value": "medium"},
      {"measurement": "oral bioavailability (in words)", "setting": "[2]; rat", "value": "medium"},
      {"measurement": "systemic plasma clearance (in words)", "setting": "[2]; rat", "value": "low"},
      {"measurement": "activity at all other targets tested", "setting": "[3]", "value": "< 40", "unit": "%"},
      {"measurement": "stability in plasma", "setting": "[4]; 1 h", "value": 95, "unit": "%"},
      {"measurement": "stability in plasma", "setting": "[4]; 4 h", "value": 93, "unit": "%"},
      {"measurement": "brain level", "setting": "[5]; 3 mg/kg ip", "value": 48, "unit": "ng/mL"},
      {"measurement": "plasma level", "setting": "[5]; 3 mg/kg ip", "value": 220, "unit": "ng/mL"},
      {"measurement": "brain level", "setting": "[5]; 10 mg/kg ip", "value": 171, "unit": "ng/mL"},
      {"measurement": "plasma level", "setting": "[5]; 10 mg/kg ip", "value": 718, "unit": "ng/mL"},
      {"measurement": "brain level", "setting": "[5]; 30 mg/kg ip", "value": 142, "unit": "ng/mL"},
      {"measurement": "plasma level", "setting": "[5]; 30 mg/kg ip", "value": 738, "unit": "ng/mL"},
      {"measurement": "free fraction", "setting": "[6]", "value": 1.3, "unit": "%"},
      {"measurement": "stability in plasma", "setting": "Stability in rat plasma; 1 h", "value": 104, "unit": "%"},
      {"measurement": "stability in plasma", "setting": "Stability in rat plasma; 4 h", "value": 110, "unit": "%"},
      {"measurement": "spontaneous LMA", "setting": "Male Wistar rats; 10 mg/kg ip at ZT15, 30 min recording", "value": "3509±383"},
      {"measurement": "spontaneous LMA", "setting": "Male Wistar rats; 30 mg/kg ip at ZT15, 30 min recording", "value": "2626±341"},
      {"measurement": "effect on spontaneous LMA (in words)", "setting": "Male Wistar rats", "value": "dose-dependently reduced spontaneous LMA"}
    ]},
    {"smiles": "CNC(=O)[C@@H](c1ccccc1)N1CCc2cc(OC)c(OC)cc2[C@@H]1CCc1ccc(C(F)(F)F)cc1", "note": "[almorexant, (2R)-2-[(1S)-6,7-Dimethoxy-1-[2-(4-trifluoromethyl-phenyl)-ethyl]-3,4-dihydro-1H-isoquinolin-2-yl]-N-methyl-2-phenyl-acetamide]", "values": [
      {"measurement": "fraction unbound", "setting": "[1]; rat, plasma", "value": "< 0.087"},
      {"measurement": "time at which half-maximal concentrations were achieved", "setting": "in vivo", "value": "4 and 6"},
      {"measurement": "Kp at 0.5 h", "setting": "in vivo; ip, 30 mg/kg", "value": 0.28},
      {"measurement": "AUC/Dose", "setting": "[2]; Wistar, rat, in vivo, iv", "value": 193.70, "unit": "ng/h/mL"},
      {"measurement": "Tmax", "setting": "[2]; Wistar, rat, in vivo, iv", "value": 0, "unit": "min"},
      {"measurement": "Vd", "setting": "[2]; Wistar, rat, in vivo, iv", "value": 9.45, "unit": "L/kg"},
      {"measurement": "clearance", "setting": "[2]; Wistar, rat, in vivo, iv", "value": 87.1, "unit": "mL/min/kg"},
      {"measurement": "half-life", "setting": "[2]; Wistar, rat, in vivo, iv", "value": 155, "unit": "min"},
      {"measurement": "Cmax/Dose", "setting": "[2]; Wistar, rat, in vivo, iv, 12.1 mg/kg", "value": 238.20, "unit": "ng/mL"},
      {"measurement": "AUC/Dose", "setting": "[2]; Wistar, rat, in vivo, po", "value": 28.00, "unit": "ng/h/mL"},
      {"measurement": "Tmax", "setting": "[2]; Wistar, rat, in vivo, po", "value": 30, "unit": "min"},
      {"measurement": "bioavailability", "setting": "[2]; Wistar, rat, in vivo, po", "value": 14.4, "unit": "%"},
      {"measurement": "half-life", "setting": "[2]; Wistar, rat, in vivo, po", "value": 77.4, "unit": "min"},
      {"measurement": "Cmax/Dose", "setting": "[2]; Wistar, rat, in vivo, po, 18.16 mg/kg", "value": 12.90, "unit": "ng/mL"},
      {"measurement": "Vss (in words)", "setting": "[2]; rat, in vivo", "value": "high"},
      {"measurement": "systemic plasma clearance (in words)", "setting": "[2]; rat, in vivo", "value": "high"},
      {"measurement": "oral bioavailability (in words)", "setting": "[2]; rat, in vivo, po", "value": "low"},
      {"measurement": "stability in plasma", "setting": "[4]; 2 h", "value": 90.0, "unit": "%"},
      {"measurement": "HCRTR1 RO", "setting": "HCRTR1; in vivo", "value": "50–60%"},
      {"measurement": "HCRTR1 RO (in words)", "setting": "HCRTR1; in vivo", "value": "returned to basal levels"},
      {"measurement": "HCRTR1 RO, maximum", "setting": "HCRTR1; in vivo", "value": 59, "unit": "%"},
      {"measurement": "receptor occupancy at 30 mg/kg", "setting": "HCRTR1; ip, read-out: HCRTR1 occupancy", "value": "~50", "unit": "%"},
      {"measurement": "fraction unbound", "setting": "[6]; human, plasma", "value": "< 0.037"},
      {"measurement": "stability in plasma", "setting": "Stability in rat plasma; 2 h", "value": 95.0, "unit": "%"},
      {"measurement": "effect on spontaneous LMA (in words)", "setting": "Male Wistar rats", "value": "dose-dependently reduced LMA"}
    ]}
  ]
}
